SMILES strings stand for the structures. Structures can show the parent of a compound that is named as a salt.

The assay concerns the target recombinant human AMPK complex 1 (containing α1β1γ1) (Homo sapiens, UniProt Q13131+Q9Y478). In words: […] (in vitro AMPK activation assay). In kind it is biochemical. To be noted: recombinant human AMPK complex 1 (α1β1γ1); basal activity subtracted; read-out: % Maximum AMP Activation of human AMPK Complex 1.

Chain of recombinant human AMPK complex 1 (containing α1β1γ1) (Q13131 whole entry): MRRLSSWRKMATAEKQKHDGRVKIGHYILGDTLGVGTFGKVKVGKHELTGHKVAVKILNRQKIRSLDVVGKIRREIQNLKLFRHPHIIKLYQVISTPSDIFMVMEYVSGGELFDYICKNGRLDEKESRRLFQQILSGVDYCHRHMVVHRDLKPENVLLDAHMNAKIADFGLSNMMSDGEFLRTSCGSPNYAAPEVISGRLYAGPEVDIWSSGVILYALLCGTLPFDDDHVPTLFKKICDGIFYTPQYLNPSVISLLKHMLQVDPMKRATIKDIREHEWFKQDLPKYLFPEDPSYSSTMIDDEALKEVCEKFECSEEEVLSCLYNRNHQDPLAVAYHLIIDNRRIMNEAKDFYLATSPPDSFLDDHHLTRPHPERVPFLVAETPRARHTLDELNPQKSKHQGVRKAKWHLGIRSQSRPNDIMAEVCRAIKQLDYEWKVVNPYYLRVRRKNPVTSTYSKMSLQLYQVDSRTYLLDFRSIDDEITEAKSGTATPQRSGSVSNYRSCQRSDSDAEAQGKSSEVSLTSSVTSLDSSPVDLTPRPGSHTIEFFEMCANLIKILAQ
Chain of recombinant human AMPK complex 1 (containing α1β1γ1) (Q9Y478 whole entry): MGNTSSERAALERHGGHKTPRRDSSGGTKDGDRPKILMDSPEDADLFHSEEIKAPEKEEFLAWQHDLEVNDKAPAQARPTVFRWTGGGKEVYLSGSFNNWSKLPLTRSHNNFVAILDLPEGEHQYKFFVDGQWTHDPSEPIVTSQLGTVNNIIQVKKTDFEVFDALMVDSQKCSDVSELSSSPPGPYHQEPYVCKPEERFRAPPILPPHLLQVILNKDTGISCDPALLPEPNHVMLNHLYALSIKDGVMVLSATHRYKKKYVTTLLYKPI
Chain of recombinant human AMPK complex 1 (containing α1β1γ1) (P54619 whole entry partner): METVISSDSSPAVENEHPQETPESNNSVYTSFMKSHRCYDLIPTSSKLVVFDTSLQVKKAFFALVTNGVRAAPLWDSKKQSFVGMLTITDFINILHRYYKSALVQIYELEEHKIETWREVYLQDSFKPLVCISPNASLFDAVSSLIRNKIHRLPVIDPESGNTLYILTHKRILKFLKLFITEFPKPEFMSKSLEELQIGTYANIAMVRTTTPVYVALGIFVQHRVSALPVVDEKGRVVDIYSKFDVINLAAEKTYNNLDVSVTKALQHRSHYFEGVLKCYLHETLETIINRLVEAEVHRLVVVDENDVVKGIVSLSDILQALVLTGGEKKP

Consider `Cc1ccc(Oc2nc3cc(-c4ccc(C5CC5)c(N(C)C)c4)c(Cl)cc3[nH]2)cc1C(=O)O` [Example 267, 5-[6-Chloro-5-(4-cyclopropyl-3-dimethylamino-phenyl)-1H-benzoimidazol-2-yloxy]-2-methyl-benzoic acid], for which the Emax was > 80%.
Next, `Cc1ccc(Oc2nc3cc(-c4ccc(C(C)C)c5c4CCN5C)c(Cl)cc3[nH]2)cc1C(=O)O` [Example 268, 5-[6-Chloro-5-(7-isopropyl-1-methyl-2,3-dihydro-1H-indol-4-yl)-1H-benzoimidazol-2-yloxy]-2-methyl-benzoic acid]: > 80%; `COC(=O)c1ccc(-c2cc3nc(Oc4ccc(C)c(C(=O)O)c4)[nH]c3cc2Cl)c2ccn(C)c12` [Example 269, 4-[2-(3-Carboxy-4-methyl-phenoxy)-6-chloro-1H-benzoimidazol-5-yl]-1-methyl-1H-indole-7-carboxylic acid methyl ester]: > 80%; `Cc1ccc(Oc2nc3cc(-c4ccc(C(=O)O)c5c4c(C)cn5C)c(Cl)cc3[nH]2)cc1C(=O)O` [Example 270, 4-[2-(3-Carboxy-4-methyl-phenoxy)-6-chloro-1H-benzoimidazol-5-yl]-1,3-dimethyl-1H-indole-7-carboxylic acid]: > 80%.
The figure for `Cc1ccc(Oc2nc3cc(-c4ccc(C(=O)O)c5c4ccn5C)c(Cl)cc3[nH]2)cc1C(=O)O` [Example 271, 4-[2-(3-Carboxy-4-meihyl-phenoxy)-6-chloro-1H-benzoimidazol-5-yl]-1-methyl-1H-indole-7-carboxylic acid] is > 80%; for `Cc1ccc(Oc2nc3cc(-c4ccc(C(C)C)c5c4ccn5C)c(Cl)cc3[nH]2)cc1C(=O)O` [Example 272, 5-[6-Chloro-5-(7-isopropyl-1-methyl-1H-indol-4-yl)-1H-benzoimidazol-2-yloxy]-2-methyl-benzoic acid] it is > 80%; for `Cc1ccc(Oc2nc3cc(-c4ccc(C(C)C)c5[nH]ccc45)c(Cl)cc3[nH]2)cc1C(=O)O` [Example 273, 5-[6-Chloro-5-(7-isopropyl-1H-indol-4-yl)-1H-benzoimidazol-2-yloxy]-2-methyl-benzoic acid] it is > 80%.
The figure for `Cc1ccc(Oc2nc3cc(-c4ccc5c(c4)cc(CO)n5C)c(Cl)cc3[nH]2)cc1C(=O)O` [Example 274, 5-[6-Chloro-5-(2-hydroxymethyl-1-methyl-1H-indol-5-yl)-1H-benzoimidazol-2-yloxy]-2-methyl-benzoic acid] is > 80%; for `Cc1ccc(Oc2nc3cc(-c4ccc5c(c4)cc(C(=O)O)n5C)c(Cl)cc3[nH]2)cc1C(=O)O` [Example 275, 5-[2-(3-Carboxy-4-methyl-phenoxy)-6-chloro-1H-benzoimidazol-5-yl]-1-methyl-1H-indole-2-carboxylic acid] it is > 80%.
`CCN1CCc2cc(-c3cc4nc(Oc5ccc(C)c(C(=O)O)c5)[nH]c4cc3Cl)ccc21` [Example 276, 5-[6-Chloro-5-(1-ethyl-2,3-dihydro-1H-indol-5-yl)-1H-benzoimidazol-2-yloxy]-2-methyl-benzoic acid]: the Emax was > 80%.
Next, `Cc1ccc(Oc2nc3cc(-c4ccc5c(c4)cc(-c4ccccc4)n5C)c(Cl)cc3[nH]2)cc1C(=O)O` [Example 277, 5-[6-Chloro-5-(1-methyl-2-phenyl-1H-indol-5-yl)-1H-benzoimidazol-2-yloxy]-2-methyl-benzoic acid]: > 80%.
`Cc1ccc(Oc2nc3cc(-c4ccc5[nH]c(-c6ccccc6)cc5c4)c(Cl)cc3[nH]2)cc1C(=O)O` [Example 278, 5-[6-Chloro-5-(2-phenyl-1H-indol-5-yl)-1H-benzoimidazol-2-yloxy]-2-methyl-benzoic acid]: the Emax is > 80%.
Next, `Cc1ccc(Oc2nc3cc(-c4ccc5c(c4)CCN5C(C)C)c(Cl)cc3[nH]2)cc1C(=O)O` [Example 279, 5-[6-Chloro-5-(1-isopropyl-2,3-dihydro-1H-indol-5-yl)-1H-benzoimidazol-2-yloxy]-2-methyl-benzoic acid]: > 80%.
The figure for `Cc1ccc(Oc2nc3cc(-c4ccc5cnccc5c4)c(Cl)cc3[nH]2)cc1C(=O)O` [Example 280, 5-(6-Chloro-5-isoquinolin-6-yl-1H-benzoimidazol-2-yloxy)-2-methyl-benzoic acid] is > 80%; for `Cc1ccc(Oc2nc3cc(-c4ccc5c(c4)c4c(n5C)CCC4)c(Cl)cc3[nH]2)cc1C(=O)O` [Example 281, 5-[6-Chloro-5-(4-methyl-1,2,3,4-tetrahydro-cyclopenta[b]indol-7-yl)-1H-benzoimidazol-2-yloxy]-2-methyl-benzoic acid] it is > 80%.
Next, `Cc1ccc(Oc2nc3cc(-c4ccc5c(c4)CCN5C)c(Cl)cc3[nH]2)cc1C(=O)O` [Example 282, 5-[6-Chloro-5-(1-methyl-2,3-dihydro-1H-indol-5-yl)-1H-benzoimidazol-2-yloxy]-2-methyl-benzoic acid]: > 80%; `Cc1ccc(Oc2nc3cc(-c4cccc5c4ccn5C)c(Cl)cc3[nH]2)cc1C(=O)O` [Example 283, 5-[6-Chloro-5-(1-methyl-1H-indol-4-yl)-1H-benzoimidazol-2-yloxy]-2-methyl-benzoic acid]: > 80%.
In the case of `Cc1ccc(Oc2nc3cc(-c4ccc5ccn(C)c5c4)c(Cl)cc3[nH]2)cc1C(=O)O` [Example 284, 5-[6-Chloro-5-(1-methyl-1H-indol-6-yl)-1H-benzoimidazol-2-yloxy]-2-methyl-benzoic acid], the Emax is > 80%.
As for `Cc1ccc(Oc2nc3cc(-c4ccc5c(c4)CCN5)c(Cl)cc3[nH]2)cc1C(=O)O` [Example 285, 5-[6-Chloro-5-(2,3-dihydro-1H-indol-5-yl)-1H-benzoimidazol-2-yloxy]-2-methyl-benzoic acid], the Emax is > 80%.
The figure for `Cc1ccc(Oc2nc3cc(-c4ccc5[nH]cc(C)c5c4)c(Cl)cc3[nH]2)cc1C(=O)O` [Example 287, 5-[6-Chloro-5-(3-methyl-1H-indol-5-yl)-1H-benzoimidazol-2-yloxy]-2-methyl-benzoic acid] is > 80%.
For the compound `Cc1ccc(Oc2nc3cc(-c4ccc5c(c4)c(C)cn5C)c(Cl)cc3[nH]2)cc1C(=O)O` [Example 288, 5-[6-Chloro-5-(1,3-dimethyl-1H-indol-5-yl)-1H-benzoimidazol-2-yloxy]-2-methyl-benzoic acid], the Emax was > 80%.
The figure for `Cc1ccc(Oc2nc3cc(-c4ccc5c(c4)cc(C)n5C)c(Cl)cc3[nH]2)cc1C(=O)O` [Example 289, 5-[6-Chloro-5-(1,2-dimethyl-1H-indol-5-yl)-1H-benzoimidazol-2-yloxy]-2-methyl-benzoic acid] is > 80%; for `Cc1ccc(Oc2nc3cc(-c4ccc5c(C)cn(C(=O)OC(C)(C)C)c5c4)c(Cl)cc3[nH]2)cc1C(=O)O` [Example 290, 6-[2-(3-Carboxy-4-methyl-phenoxy)-6-chloro-1H-benzoimidazol-5-yl]-3-methyl-indole-1-carboxylic acid tert butyl ester] it is > 80%.
The figure for `Cc1ccc(Oc2nc3cc(-c4ccc5c(C)c[nH]c5c4)c(Cl)cc3[nH]2)cc1C(=O)O` [Example 291, 5-[6-Chloro-5-(3-methyl-1H-indol-6-yl)-1H-benzoimidazol-2-yloxy]-2-methyl-benzoic acid] is > 80%.
Take `Cc1ccc(Oc2nc3cc(-c4ccc(C(C)N(C)C)cc4)c(Cl)cc3[nH]2)cc1C(=O)O` (stereo not drawn) [Example 292, 1-{4-[2-(3-carboxy-4-methylphenoxy)-6-chloro-1H-benzimidazol-5-yl]phenyl}-N,N-dimethylethanaminium trifluoroacetate]: the Emax is > 80%.
Next, `Cc1ccc(Oc2nc3cc(-c4ccc(C(C)N)cc4)c(Cl)cc3[nH]2)cc1C(=O)O` (stereo not drawn) [Example 293, 1-{4-[2-(3-carboxy-4-methylphenoxy)-6-chloro-1H-benzimidazol-5-yl]phenyl}ethanaminium trifluoroacetate]: > 80%.
Next, `Cc1ccc(Oc2nc3cc(-c4ccc(CN(C)C)cc4)c(Cl)cc3[nH]2)cc1C(=O)O` [Example 294, {4-[2-(3-carboxy-4-methylphenoxy)-6-chloro-1H-benzimidazol-5-yl]phenyl}-N,N-dimethylmethanaminium trifluoroacetate]: > 80%.
The figure for `Cc1ccc(Oc2nc3cc(-c4ccc(N(C)C)c(C(F)(F)F)c4)c(Cl)cc3[nH]2)cc1C(=O)O` [Example 295, 2-(3-carboxy-4-methylphenoxy)-6-chloro-5-[4-(dimethylamino)-3-(trifluoromethyl)phenyl]-1H-3,1-benzimidazol-3-ium chloride] is > 80%; for `Cc1ccc(Oc2nc3cc(-c4ccc(N(C)C)c(F)c4)c(Cl)cc3[nH]2)cc1C(=O)O` [Example 296, 2-(3-carboxy-4-methylphenoxy)-6-chloro-5-[4-(dimethylamino)-3-fluorophenyl]-1H-3,1-benzimidazol-3-ium chloride] it is > 80%.
As to `Cc1ccc(Oc2nc3cc(-c4ccc(C(C)(C)N)cc4)c(Cl)cc3[nH]2)cc1C(=O)O` [Example 297, 2-{4-[2-(3-carboxy-4-methylphenoxy)-6-chloro-1H-benzimidazol-5-yl]phenyl}propan-2-aminium trifluoroacetate], the Emax is > 80%.
Regarding `CC(=O)c1ccc2cc(-c3cc4nc(Oc5ccc(C)c(C(=O)O)c5)[nH]c4cc3Cl)ccc2c1` [Example 298, 5-[5-(6-Acetyl-naphthalen-2-yl)-6-chloro-1H-benzoimidazol-2-yloxy]-2-methyl-benzoic acid], the Emax is > 80%.
The figure for `Cc1ccc(Oc2nc3cc(-c4ccc5c(c4)CN(C(C)C)C5)c(Cl)cc3[nH]2)cc1C(=O)O` [Example 299, 5-[2-(3-carboxy-4-methylphenoxy)-6-chloro-1H-benzimidazol-5-yl]-2-isopropyl-2,3-dihydro-1H-isoindolium trifluoroacetate] is > 80%.
Next, `Cc1ccc(Oc2nc3cc(-c4ccc5c(c4)CN(C)C5)c(Cl)cc3[nH]2)cc1C(=O)O` [Example 300, 5-[2-(3-carboxy-4-methylphenoxy)-6-chloro-1H-benzimidazol-5-yl]-2-methyl-2,3-dihydro-1H-isoindolium trifluoroacetate]: > 80%.

The record behind these values is patent US8394969B2, “Cyclic benzimidazole derivatives useful as anti-diabetic agents” (Merck Sharp & Dohme Corp., priority 2008, dated 2013).
